Assay results as given in ChEMBL document CHEMBL5055662, “Characterization of an aromatic trifluoromethyl ketone as a new warhead for covalently reversible kinase inhibitor design” (Bioorg Med Chem, 2021).

How the values were obtained:
[1] = target: Fibroblast growth factor receptor 1 (Homo sapiens, UniProt P11362); test: Inhibition of FGFR1 (unknown origin) using Tyr04 peptide as substrate incubated for 1 hr in presence of ATP by FRET based Z'-LYTE assay
[2] = target: Fibroblast growth factor receptor 2 (Homo sapiens, UniProt P21802); test: Inhibition of FGFR2 (unknown origin) using Tyr04 peptide as substrate incubated for 1 hr in presence of ATP by FRET based Z'-LYTE assay
[3] = target: Fibroblast growth factor receptor 3 (Homo sapiens, UniProt P22607); test: Inhibition of FGFR3 (unknown origin) using Tyr04 peptide as substrate incubated for 1 hr in presence of ATP by FRET based Z'-LYTE assay
[4] = target: T1, Tyrosine-protein kinase JAK3 (Homo sapiens, UniProt P52333); test: Inhibition of JAK3 (unknown origin) incubated for 1 hr in presence of ATP and substrate by FRET based Z'-LYTE assay
T1 sequence (P52333 whole entry): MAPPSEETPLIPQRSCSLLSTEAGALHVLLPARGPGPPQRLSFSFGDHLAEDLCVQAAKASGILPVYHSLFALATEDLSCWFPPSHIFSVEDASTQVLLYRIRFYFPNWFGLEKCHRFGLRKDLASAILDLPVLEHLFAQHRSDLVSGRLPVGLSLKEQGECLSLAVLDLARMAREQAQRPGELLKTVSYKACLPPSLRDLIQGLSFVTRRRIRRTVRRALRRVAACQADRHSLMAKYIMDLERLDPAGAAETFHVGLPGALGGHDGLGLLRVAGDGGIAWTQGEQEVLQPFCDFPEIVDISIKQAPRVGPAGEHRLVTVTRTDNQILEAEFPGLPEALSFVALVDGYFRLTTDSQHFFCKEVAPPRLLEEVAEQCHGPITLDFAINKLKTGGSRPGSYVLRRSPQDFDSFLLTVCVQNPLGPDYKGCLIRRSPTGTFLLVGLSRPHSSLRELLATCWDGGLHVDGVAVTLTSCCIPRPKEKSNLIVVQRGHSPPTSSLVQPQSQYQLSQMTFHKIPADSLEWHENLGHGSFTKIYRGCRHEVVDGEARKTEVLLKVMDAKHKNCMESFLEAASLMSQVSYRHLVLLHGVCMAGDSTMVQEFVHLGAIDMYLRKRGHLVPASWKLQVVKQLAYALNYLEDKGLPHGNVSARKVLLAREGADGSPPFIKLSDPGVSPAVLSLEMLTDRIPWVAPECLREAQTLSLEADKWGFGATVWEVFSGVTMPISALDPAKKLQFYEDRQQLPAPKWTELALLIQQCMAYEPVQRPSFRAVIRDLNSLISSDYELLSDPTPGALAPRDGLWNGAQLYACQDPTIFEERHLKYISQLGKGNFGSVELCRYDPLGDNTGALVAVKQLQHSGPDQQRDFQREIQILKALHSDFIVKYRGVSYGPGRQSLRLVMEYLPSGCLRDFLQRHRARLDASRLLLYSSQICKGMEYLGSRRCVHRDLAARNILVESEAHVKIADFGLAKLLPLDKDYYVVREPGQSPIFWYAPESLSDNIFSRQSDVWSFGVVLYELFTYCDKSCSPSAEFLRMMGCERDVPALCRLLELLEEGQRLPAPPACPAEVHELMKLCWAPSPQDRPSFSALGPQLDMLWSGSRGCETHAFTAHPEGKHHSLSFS

[5] = target: Fibroblast growth factor receptor 4 (Homo sapiens) (UniProt P22455); test: Reversible covalent binding affinity to recombinant His-tagged human FGFR4 expressed in baculovirus expression system assessed as recovery of kinase activity preincubated for 120 mins followed by dialysis of protein for 3 days by MALDI-TOF MS analysis relative to control; conditions: time 4440.0 min
Fibroblast growth factor receptor 4 (Homo sapiens), sequence (P22455 22-802 limits assumed): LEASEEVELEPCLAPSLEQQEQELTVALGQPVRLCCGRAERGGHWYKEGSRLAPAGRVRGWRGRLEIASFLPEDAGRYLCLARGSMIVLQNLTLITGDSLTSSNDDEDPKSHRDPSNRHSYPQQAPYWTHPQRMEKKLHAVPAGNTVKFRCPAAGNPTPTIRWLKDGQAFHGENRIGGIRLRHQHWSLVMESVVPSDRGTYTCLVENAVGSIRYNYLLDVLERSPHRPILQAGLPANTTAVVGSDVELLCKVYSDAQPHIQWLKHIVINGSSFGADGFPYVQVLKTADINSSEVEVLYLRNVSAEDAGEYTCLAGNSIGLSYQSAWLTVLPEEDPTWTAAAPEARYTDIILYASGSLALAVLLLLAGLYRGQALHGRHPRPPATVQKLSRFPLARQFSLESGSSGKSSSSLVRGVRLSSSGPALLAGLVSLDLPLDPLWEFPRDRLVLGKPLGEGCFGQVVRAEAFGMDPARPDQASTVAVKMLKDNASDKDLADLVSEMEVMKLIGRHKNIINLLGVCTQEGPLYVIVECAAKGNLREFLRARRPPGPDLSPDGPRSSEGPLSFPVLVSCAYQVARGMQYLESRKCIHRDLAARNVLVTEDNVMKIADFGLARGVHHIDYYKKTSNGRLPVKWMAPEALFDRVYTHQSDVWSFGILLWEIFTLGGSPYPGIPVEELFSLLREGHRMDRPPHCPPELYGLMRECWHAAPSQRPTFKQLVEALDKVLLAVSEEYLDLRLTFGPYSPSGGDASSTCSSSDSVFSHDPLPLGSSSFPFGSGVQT

Fibroblast growth factor receptor 3, sequence (P22607 whole entry): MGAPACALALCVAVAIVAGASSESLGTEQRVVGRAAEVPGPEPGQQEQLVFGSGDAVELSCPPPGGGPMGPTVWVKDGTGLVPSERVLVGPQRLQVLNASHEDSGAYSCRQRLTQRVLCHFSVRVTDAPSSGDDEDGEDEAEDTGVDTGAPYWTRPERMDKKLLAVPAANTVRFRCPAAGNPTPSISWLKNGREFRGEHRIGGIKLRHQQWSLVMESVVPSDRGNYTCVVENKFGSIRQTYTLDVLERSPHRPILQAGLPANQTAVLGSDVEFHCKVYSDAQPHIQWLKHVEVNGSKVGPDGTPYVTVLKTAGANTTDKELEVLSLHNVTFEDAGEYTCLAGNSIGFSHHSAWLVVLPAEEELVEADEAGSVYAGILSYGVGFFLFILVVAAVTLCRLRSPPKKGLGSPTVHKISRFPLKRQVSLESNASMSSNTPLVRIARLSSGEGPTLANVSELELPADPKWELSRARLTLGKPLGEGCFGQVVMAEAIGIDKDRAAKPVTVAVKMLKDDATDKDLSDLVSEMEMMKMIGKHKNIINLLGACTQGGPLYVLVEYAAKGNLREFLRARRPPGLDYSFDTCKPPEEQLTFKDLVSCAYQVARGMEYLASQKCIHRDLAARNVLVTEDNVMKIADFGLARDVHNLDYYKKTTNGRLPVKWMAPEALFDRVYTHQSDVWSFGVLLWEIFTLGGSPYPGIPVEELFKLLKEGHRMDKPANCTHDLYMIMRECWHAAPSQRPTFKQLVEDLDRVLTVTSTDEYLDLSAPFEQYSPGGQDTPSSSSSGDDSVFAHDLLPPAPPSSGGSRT
Fibroblast growth factor receptor 1, sequence (P11362 whole entry): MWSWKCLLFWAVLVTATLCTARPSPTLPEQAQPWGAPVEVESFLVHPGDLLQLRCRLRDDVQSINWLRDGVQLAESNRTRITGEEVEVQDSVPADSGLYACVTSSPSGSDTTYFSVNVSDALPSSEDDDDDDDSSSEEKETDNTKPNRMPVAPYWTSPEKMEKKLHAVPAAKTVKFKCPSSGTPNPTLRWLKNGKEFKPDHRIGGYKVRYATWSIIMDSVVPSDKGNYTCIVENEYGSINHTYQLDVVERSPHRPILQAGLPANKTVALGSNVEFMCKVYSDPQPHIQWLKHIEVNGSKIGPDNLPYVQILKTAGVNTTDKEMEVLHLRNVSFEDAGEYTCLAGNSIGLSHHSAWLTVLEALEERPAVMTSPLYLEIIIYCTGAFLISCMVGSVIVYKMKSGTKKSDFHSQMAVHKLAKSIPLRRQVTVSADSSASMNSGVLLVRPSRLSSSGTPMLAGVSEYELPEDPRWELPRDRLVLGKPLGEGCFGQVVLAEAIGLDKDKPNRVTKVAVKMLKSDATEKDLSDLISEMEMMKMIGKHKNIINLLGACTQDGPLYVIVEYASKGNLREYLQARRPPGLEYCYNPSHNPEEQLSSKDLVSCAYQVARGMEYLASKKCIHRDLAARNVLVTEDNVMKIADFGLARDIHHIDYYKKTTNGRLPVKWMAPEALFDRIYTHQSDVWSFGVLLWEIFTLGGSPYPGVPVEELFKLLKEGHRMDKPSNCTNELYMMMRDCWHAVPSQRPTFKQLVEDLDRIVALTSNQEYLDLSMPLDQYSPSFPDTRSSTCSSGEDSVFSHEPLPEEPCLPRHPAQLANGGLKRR
Fibroblast growth factor receptor 2, sequence (P21802 whole entry): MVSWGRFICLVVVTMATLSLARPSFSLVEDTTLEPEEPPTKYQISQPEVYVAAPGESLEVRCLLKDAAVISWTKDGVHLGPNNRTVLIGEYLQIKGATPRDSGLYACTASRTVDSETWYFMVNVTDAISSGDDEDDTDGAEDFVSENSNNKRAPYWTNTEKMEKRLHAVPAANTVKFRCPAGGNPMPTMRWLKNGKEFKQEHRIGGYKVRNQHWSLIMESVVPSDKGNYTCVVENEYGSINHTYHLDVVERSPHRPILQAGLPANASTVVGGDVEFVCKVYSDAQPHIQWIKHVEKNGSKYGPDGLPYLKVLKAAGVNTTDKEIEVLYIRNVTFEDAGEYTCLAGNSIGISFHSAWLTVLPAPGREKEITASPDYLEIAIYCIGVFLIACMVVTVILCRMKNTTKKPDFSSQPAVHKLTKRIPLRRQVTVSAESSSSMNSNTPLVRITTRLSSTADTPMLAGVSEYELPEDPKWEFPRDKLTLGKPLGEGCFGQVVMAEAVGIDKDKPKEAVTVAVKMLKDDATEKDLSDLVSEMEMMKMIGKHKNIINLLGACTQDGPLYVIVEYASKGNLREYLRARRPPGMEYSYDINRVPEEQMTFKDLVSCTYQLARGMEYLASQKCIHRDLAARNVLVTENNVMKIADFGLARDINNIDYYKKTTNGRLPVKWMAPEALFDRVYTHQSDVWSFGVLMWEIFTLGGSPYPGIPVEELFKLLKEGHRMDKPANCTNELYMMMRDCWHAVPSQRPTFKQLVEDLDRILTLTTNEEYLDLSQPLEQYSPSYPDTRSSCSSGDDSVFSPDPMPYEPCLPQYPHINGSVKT

| Structure (SMILES) | IC50 [1] | IC50 [2] | IC50 [3] | IC50 [4] | Activity [5] |
| --- | --- | --- | --- | --- | --- |
| CC(C)Oc1cc(NC(=O)N2CCCc3ccc(C=O)nc32)ncc1C#N | > 10 µM | > 10 µM | > 10 µM |  |  |
| N#Cc1cnc(NC(=O)N2CCCc3ccc(C(=O)C(F)(F)F)nc32)cc1OC1CCCCC1 | > 10 µM | > 10 µM | > 10 µM |  |  |
| CCOc1cc(NC(=O)N2CCCc3ccc(C(=O)C(F)(F)F)nc32)ncc1C#N | > 10 µM | > 10 µM | > 10 µM |  |  |
| CCCOc1cc(NC(=O)N2CCCc3ccc(C(=O)C(F)(F)F)nc32)ncc1C#N | > 10 µM | > 10 µM | > 10 µM |  |  |
| COCCNc1cc(NC(=O)N2CCCc3ccc(C(=O)C(F)(F)F)nc32)ncc1C#N | > 10 µM | > 10 µM | > 10 µM |  |  |
| Cc1ccc(C(=O)Nc2ccc(CN3CCN(C)CC3)c(C(F)(F)F)c2)cc1C#Cc1cnc2cccnn12 |  |  |  |  | 100% |

Next, values leading:

| IC50 [1] | IC50 [2] | IC50 [3] | IC50 [4] | Activity [5] | Structure (SMILES) |
| --- | --- | --- | --- | --- | --- |
| > 10 µM | > 10 µM | > 10 µM |  |  | COc1cc(NC(=O)N2CCCc3ccc(C(=O)C(F)(F)F)nc32)ncc1C#N |
|  |  |  | 0.0872 µM |  | O=C(c1ccc(-c2nc3cnc4[nH]ccc4c3n2C2CCCCC2)o1)C(F)(F)F |
| > 10 µM | > 10 µM | > 10 µM |  |  | N#Cc1cnc(NC(=O)N2CCCc3ccc(C(=O)C(F)(F)F)nc32)cc1OC1CCOC1 (stereo not given) |
| > 10 µM | > 10 µM | > 10 µM |  |  | CC(C)Oc1cc(NC(=O)N2CCCc3ccc(C(=O)C(F)(F)F)nc32)ncc1C#N |
| > 10 µM | > 10 µM | > 10 µM |  |  | CCCCOc1cc(NC(=O)N2CCCc3ccc(C(=O)C(F)(F)F)nc32)ncc1C#N |
| > 10 µM | > 10 µM | > 10 µM |  |  | COCCOc1cc(NC(=O)N2CCCc3ccc(C(=O)C(F)(F)F)nc32)ncc1C#N |
| > 10 µM | > 10 µM | > 10 µM |  |  | N#Cc1cnc(NC(=O)N2CCCc3ccc(C(=O)C(F)(F)F)nc32)cc1OC1CCCC1 |
